The results in this text go back to patent US10647959B2, “Cell-friendly inverse opal hydrogels for cell encapsulation, drug and protein delivery, and functional nanoparticle encapsulation” (President and Fellows of Harvard College, priority 2011, dated 2020).

SMILES strings stand for the structures.

For the data set, the system named is Mouse mesenchymal stem cells (MSCs). To be noted: 50 mM EDTA solution, up to 3 h incubation, fluorescent images (FIG. 5a). As for the experimental part:
Subsequently, the viability of cells was measured with a live/dead cell assay by using calcein AM and ethidium homodimer-1.

In the case of `O=C(O)CN(CCN(CC(=O)O)CC(=O)O)CC(=O)O` [EDTA, ethylenediaminetetraacetic acid], the “toxicity of the EDTA solution to the cells” value is on record as “no significant toxicity”.
